Experimental findings from PubChem BioAssay (NCI) are described below.

“And” between values parts separate entries of the source, which are not always exact repeats. Equal entries are not always repeated.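 Grown in 96-well plates, cells were treated for 48 hours with each compound at five concentrations. Insufficient inhibition: endpoint recorded as highest concentration tested. GI50: concentration for 50% inhibition of growth. TGI: concentration producing complete growth inhibition.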

For one test, the system named is P388 leukemia. Kind of test: NCI tumour cell line growth inhibition, 48 h.
Another test relates to P388/ADR leukemia. The test is described as follows: NCI tumour cell line growth inhibition, 48 h.

Regarding `Cc1[nH]c(=O)[nH]c(=O)c1N(CCF)CCCl`, the GI50 in the test on P388 leukemia is 190 µM and 58.3 µM and 223 µM; in the test on P388/ADR leukemia, 242 µM. For the same compound, the TGI in the test with P388 leukemia is 485 µM and 1330 µM and 791 µM; in the test on P388/ADR leukemia, 557 µM and 1110 µM.
